Key:
Assay type in all cases: in vivo
Settings in all cases: 250 g/ha, evaluated after 13 days
Setaria faberi (SETFA) [1] = assay: Post-emergence herbicidal test, glasshouse
Method: (§1) Seeds of a variety of test species are sown in standard soil in pots Amaranthus palmeri (AMAPA), Amaranthus retoflexus (AMARE), Setaria faberi (SETFA), Echinochloa crus-galli (ECHCG), Ipomoea hederacea (IPOHE)). After cultivation for one day (pre-emergence) or after 8 days cultivation (post-emergence) under controlled conditions in a glasshouse (at 24/16° C., day/night; 14 hours light; 65% humidity), the plants are sprayed with an aqueous spray solution derived from the formulation of the technical active ingredient in acetone/water (50:50) solution containing 0.5% Tween 20 (polyoxyethelyene sorbitan monolaurate, CAS RN 9005-64-5). Compounds are applied at 250 g/ha unless otherwise stated. The test plants are then grown in a glasshouse under controlled conditions in a glasshouse (at 24/16° C., day/night; 14 hours light; 65% humidity) and watered twice daily. After 13 days for pre and post-emergence, the test is evaluated for the percentage damage caused to the plant. The biological activities are shown in the following table on a five-point scale (5=81-100%; 4=61-80%; 3=41-60%; 2=21-40%; 1=0-20%).

[2] = system: Amaranthus palmeri (AMAPA); assay: Post-emergence herbicidal test, glasshouse
Method: as §1

[3] = system: Amaranthus retoflexus (AMARE); assay: Post-emergence herbicidal test, glasshouse
Method: as §1

[4] = system: Ipomoea hederacea (IPOHE); assay: Post-emergence herbicidal test, glasshouse
Method: as §1

[5] = system: Echinochloa crus-galli (ECHCG); assay: Post-emergence herbicidal test, glasshouse
Method: as §1

Setaria faberi (SETFA) [6] = assay: Pre-emergence herbicidal test, glasshouse
Method: as §1

[7] = system: Amaranthus palmeri (AMAPA); assay: Pre-emergence herbicidal test, glasshouse
Method: as §1

[8] = system: Amaranthus retoflexus (AMARE); assay: Pre-emergence herbicidal test, glasshouse
Method: as §1

[9] = system: Ipomoea hederacea (IPOHE); assay: Pre-emergence herbicidal test, glasshouse
Method: as §1

[10] = system: Echinochloa crus-galli (ECHCG); assay: Pre-emergence herbicidal test, glasshouse
Method: as §1

SMILES | SETFA percentage damage caused to the plant (five-point scale) (Setaria faberi (SETFA) [1]) | AMAPA percentage damage caused to the plant (five-point scale) [2] | AMARE percentage damage caused to the plant (five-point scale) [3] | IPOHE percentage damage caused to the plant (five-point scale) [4] | ECHCG percentage damage caused to the plant (five-point scale) [5] | SETFA percentage damage caused to the plant (five-point scale) (Setaria faberi (SETFA) [6]) | AMAPA percentage damage caused to the plant (five-point scale) [7] | AMARE percentage damage caused to the plant (five-point scale) [8] | IPOHE percentage damage caused to the plant (five-point scale) [9] | ECHCG percentage damage caused to the plant (five-point scale) [10]
Cc1cnc(Cc2cc(C(F)(F)F)nn2-c2ccc(C(F)(F)F)cc2)nc1 [Compound 1.011] | 5 (5=81-100%) | 5 (5=81-100%) | 5 (5=81-100%) | 3 (3=41-60%) | 5 (5=81-100%) | 5 (5=81-100%) | 5 (5=81-100%) | 5 (5=81-100%) | 5 (5=81-100%) | 5 (5=81-100%)
N#Cc1cnc(Cc2cc(C(F)(F)F)nn2-c2ccc(C(F)(F)F)cc2)nc1 [Compound 1.012] | 5 (5=81-100%) | 5 (5=81-100%) | 5 (5=81-100%) | 4 (4=61-80%) | 4 (4=61-80%) | 5 (5=81-100%) | 5 (5=81-100%) | 5 (5=81-100%) | 5 (5=81-100%) | 5 (5=81-100%)
FC(F)c1cc(Cc2ncc(Cl)cn2)n(-c2ccc(C(F)(F)F)cc2)n1 [Compound 1.016] | 5 (5=81-100%) | 5 (5=81-100%) | 5 (5=81-100%) | 3 (3=41-60%) | 5 (5=81-100%) | 5 (5=81-100%) | 5 (5=81-100%) | 5 (5=81-100%) | 5 (5=81-100%) | 5 (5=81-100%)
FC(F)c1cc(Cc2ncc(Cl)cn2)n(-c2ccc(Cl)nc2)n1 [Compound 1.035] | 3 (3=41-60%) | 4 (4=61-80%) | 4 (4=61-80%) | 4 (4=61-80%) | 3 (3=41-60%) | 5 (5=81-100%) | 5 (5=81-100%) | 5 (5=81-100%) | 4 (4=61-80%) | 4 (4=61-80%)

Source: patent US20250042876A1, “HERBICIDAL PYRAZOLE PYRIMIDINE COMPOUNDS” (SYNGENTA CROP PROTECTION AG, priority 2021, published 2025)
